Data on 66 compounds can be found in US11497751B2, “Modulators of Rho-associated protein kinase” (Redx Pharma PLC, priority 2018, dated 2022).

Each structure is given as a SMILES string. pIC50: −log10 of the molar value. A value given as a limit tells only on which side of the number the result lay.

This experiment has as its target T1, N-terminal 6His-tagged ROCK2 catalytic domain 11-552 (Homo sapiens, UniProt O75116).
T1 construct: N-terminal 6His-tagged ROCK2 catalytic domain 11-552; 6His (N); purchased Dundee University, UK; host or cells: baculovirus expression system
As to the kind of experiment: ROCK2 binding activity: ROCK2 inhibition, ADP-Glo Kinase Assay. The note with it: 1.25 nM ROCK2, 100 μM long S6 peptide, 20 μM ATP; 1 hour pre-incubation; read-out: ADP-Glo kinase activity assay ROCK2 Category. In kind it is biochemical. In outline:
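1.25 nM baculovirus-expressed ROCK2 pre-incubated 1 h with compound (1% DMSO), then 100 μM long S6 peptide and 20 μM ATP added for 1 h; 50 mM HEPES pH 7.5, 10 mM Mg acetate, 1 mM DTT. ADP-Glo luminescence; IC50 from four-parameter logistic fit.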

T1 sequence (O75116 11-552): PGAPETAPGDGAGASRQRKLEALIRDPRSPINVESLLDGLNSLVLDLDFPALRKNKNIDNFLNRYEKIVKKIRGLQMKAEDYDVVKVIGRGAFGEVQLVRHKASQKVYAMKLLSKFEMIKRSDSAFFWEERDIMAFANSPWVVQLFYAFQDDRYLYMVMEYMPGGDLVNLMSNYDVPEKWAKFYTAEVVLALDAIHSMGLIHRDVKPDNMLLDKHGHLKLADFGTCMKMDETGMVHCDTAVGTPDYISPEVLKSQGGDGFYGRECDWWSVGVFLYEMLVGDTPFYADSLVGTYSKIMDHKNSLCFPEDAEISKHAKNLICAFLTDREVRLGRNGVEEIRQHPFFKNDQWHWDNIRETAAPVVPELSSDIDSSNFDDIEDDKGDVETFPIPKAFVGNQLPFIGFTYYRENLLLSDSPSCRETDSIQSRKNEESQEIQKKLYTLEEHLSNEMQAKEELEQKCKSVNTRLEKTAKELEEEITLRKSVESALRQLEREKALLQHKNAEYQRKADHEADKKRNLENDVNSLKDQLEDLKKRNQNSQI

Consider `COc1cc(-c2nc(Nc3ccc4[nH]ncc4c3Cl)n(C)n2)ccc1C(=O)NC1CN(C)C1` [Example 267], for which the pIC50 was > 6.52.

Regarding `Cn1nc(-c2cccc(C(=O)NCC(F)(F)F)c2)nc1Nc1ccc2[nH]ncc2c1Cl` [Example 268], the pIC50 is > 6.52.

Take `Cn1nc(-c2cccc(C(=O)NC3CC3)c2)nc1Nc1ccc2[nH]ncc2c1Cl` [Example 269]: the pIC50 was > 6.52.

For `CC(C)NC(=O)c1cccc(-c2nc(Nc3ccc4[nH]ncc4c3Cl)n(C)n2)c1` [Example 270], the pIC50 was > 6.52.

On to `COc1cc(-c2nc(Nc3cc(Cl)c4[nH]ncc4c3)n(C)n2)ccc1C(=O)NC(C)C` [Example 271], for which the pIC50 was > 6.52.

`CCNC(=O)c1ccc(-c2nc(Nc3ccc4[nH]ncc4c3C3CC3)n(C)n2)cc1OC` [Example 272]: the pIC50 was > 6.52.

`COc1cc(-c2nc(Nc3ccc4[nH]ncc4c3C3CC3)n(C)n2)ccc1C(=O)NC(C)C` [Example 273]: the pIC50 was > 6.52.

In the case of `COc1cc(-c2nc(Nc3ccc4[nH]ncc4c3C3CC3)n(C)n2)ccc1OCC(=O)NC(C)C` [Example 274], the pIC50 is > 6.52.

For the compound `COc1cc(-c2nc(Nc3ccc4[nH]ncc4c3C3CC3)n(C)n2)ccc1C(=O)NC1CN(C)C1` [Example 275], the pIC50 is 5.52 to 6.52.

Regarding `Cc1cc(-c2nc(Nc3ccc4[nH]ncc4c3C3CC3)n(C)n2)ccc1C(=O)NCC(F)(F)F` [Example 276], the pIC50 is > 6.52.

As for `CCNC(=O)c1ccc(-c2nc(Nc3ccc4[nH]ncc4c3C3CC3)n(C)n2)cc1C` [Example 277], the pIC50 was > 6.52.

Turning to `COc1cc(C(=O)NCC(F)(F)F)ccc1-c1nc(Nc2ccc3[nH]ncc3c2C2CC2)n(C)n1` [Example 278], the pIC50 is > 6.52.

As for `CCNC(=O)c1ccc(-c2nc(Nc3ccc4[nH]ncc4c3C3CC3)n(C)n2)c(OC)c1` [Example 279], the pIC50 is > 6.52.

On to `COc1cc(-c2nc(Nc3ccc4[nH]ncc4c3C3CC3)n(C)n2)ccc1C(=O)NCC(F)(F)F` [Example 280], for which the pIC50 was > 6.52.

In the case of `Cn1nc(-c2ccc(C(=O)NC3(C(F)(F)F)CC3)cc2)nc1Nc1ccc2[nH]ncc2c1C1CC1` [Example 281], the pIC50 was > 6.52.

Consider `CCC(C)NC(=O)c1ccc(-c2nc(Nc3ccc4[nH]ncc4c3C3CC3)n(C)n2)cc1` (stereo not drawn) [Example 282], for which the pIC50 is > 6.52.

As for `Cn1nc(-c2ccc(C(=O)NCC3CC3)cc2)nc1Nc1ccc2[nH]ncc2c1C1CC1` [Example 283], the pIC50 is > 6.52.

In the case of `Cn1nc(-c2ccc(C(=O)NCC(F)(F)CO)cc2)nc1Nc1ccc2[nH]ncc2c1C1CC1` [Example 284], the pIC50 was > 6.52.

On to `Cn1nc(-c2ccc(C(=O)NCCC(F)(F)F)cc2)nc1Nc1ccc2[nH]ncc2c1C1CC1` [Example 285], for which the pIC50 is > 6.52.

`Cn1nc(-c2ccc(C(=O)NCC(C)(C)O)cc2)nc1Nc1ccc2[nH]ncc2c1C1CC1` [Example 286]: the pIC50 was > 6.52.

With `Cn1nc(-c2ccc(C3=NCC(C)(C)O3)cc2)nc1Nc1ccc2[nH]ncc2c1C1CC1` [Example 287], the pIC50 is > 6.52.

With `Cn1nc(-c2ccc(C(=O)NC3CC(O)C3)cc2)nc1Nc1ccc2[nH]ncc2c1C1CC1` (stereo not drawn) [Example 288], the pIC50 was > 6.52.

For the compound `Cn1nc(-c2ccc(C(=O)NCC(C)(C)C)cc2)nc1Nc1ccc2[nH]ncc2c1C1CC1` [Example 289], the pIC50 was > 6.52.

Take `Cn1nc(-c2ccc(C(=O)NCC(C)(C)N)cc2)nc1Nc1ccc2[nH]ncc2c1C1CC1` [Example 291]: the pIC50 is 5.00 to 5.52.

On to `Cn1nc(-c2ccc(C(=O)NC3(CO)CC3)cc2)nc1Nc1ccc2[nH]ncc2c1C1CC1` [Example 293], for which the pIC50 was > 6.52.

Regarding `Cn1nc(-c2ccc(C(=O)NC3(C)CC3)cc2)nc1Nc1ccc2[nH]ncc2c1C1CC1` [Example 294], the pIC50 is > 6.52.

For `CC(C)NC(=O)c1ccc(-c2nc(Nc3ccc4[nH]ncc4c3C3CC3)n(C)n2)cc1` [Example 295], the pIC50 is > 6.52.

For the compound `COC(=O)CNC(=O)c1ccc(-c2nc(Nc3ccc4[nH]ncc4c3C3CC3)n(C)n2)cc1` [Example 296], the pIC50 was 5.52 to 6.52.

Consider `Cn1nc(-c2ccc(C(=O)NC3CCC(F)(F)C3)cc2)nc1Nc1ccc2[nH]ncc2c1C1CC1` (stereo not drawn) [Example 298], for which the pIC50 is > 6.52.

For the compound `Cn1nc(-c2ccc(C(=O)N[C@H]3C[C@@H]3F)cc2)nc1Nc1ccc2[nH]ncc2c1C1CC1` [Example 299], the pIC50 was > 6.52.

As for `Cn1cc(NC(=O)c2ccc(-c3nc(Nc4ccc5[nH]ncc5c4C4CC4)n(C)n3)cc2)cn1` [Example 300], the pIC50 was > 6.52.

With `COC(=O)[C@@H](NC(=O)c1ccc(-c2nc(Nc3ccc4[nH]ncc4c3C3CC3)n(C)n2)cc1)C(C)C` [Example 301], the pIC50 is > 6.52.

Regarding `COC(=O)[C@H](CC(C)C)NC(=O)c1ccc(-c2nc(Nc3ccc4[nH]ncc4c3C3CC3)n(C)n2)cc1` [Example 302], the pIC50 was > 6.52.

`Cn1nc(-c2ccc(C(=O)NC3CCOC3)cc2)nc1Nc1ccc2[nH]ncc2c1C1CC1` (stereo not drawn) [Example 303]: the pIC50 is > 6.52.

`CC[C@@H](C)[C@H](NC(=O)c1ccc(-c2nc(Nc3ccc4[nH]ncc4c3C3CC3)n(C)n2)cc1)C(=O)OC` [Example 304]: the pIC50 is > 6.52.

Take `Cn1nc(-c2ccc(C(=O)NC3CCCCC3O)cc2)nc1Nc1ccc2[nH]ncc2c1C1CC1` (stereo not drawn) [Example 305]: the pIC50 is > 6.52.

As to `Cn1nc(-c2ccc(C(=O)NCC(N)=O)cc2)nc1Nc1ccc2[nH]ncc2c1C1CC1` [Example 306], the pIC50 is 5.52 to 6.52.

Consider `Cn1nc(-c2ccc(C(=O)N3CCNC(C(F)(F)F)C3)cc2)nc1Nc1ccc2[nH]ncc2c1C1CC1` (stereo not drawn) [Example 307], for which the pIC50 is 5.52 to 6.52.

With `Cn1nc(-c2ccc(C(=O)NC3(CO)CCCC3)cc2)nc1Nc1ccc2[nH]ncc2c1C1CC1` [Example 308], the pIC50 is > 6.52.

As for `CC(C)C[C@@H](CO)NC(=O)c1ccc(-c2nc(Nc3ccc4[nH]ncc4c3C3CC3)n(C)n2)cc1` [Example 309], the pIC50 was > 6.52.

For the compound `CCC(CO)NC(=O)c1ccc(-c2nc(Nc3ccc4[nH]ncc4c3C3CC3)n(C)n2)cc1` (stereo not drawn) [Example 310], the pIC50 was > 6.52.

For `Cn1nc(-c2ccc(C(=O)NC(CO)C(F)(F)F)cc2)nc1Nc1ccc2[nH]ncc2c1C1CC1` (stereo not drawn) [Example 311], the pIC50 was > 6.52.

Take `CC1CC1NC(=O)c1ccc(-c2nc(Nc3ccc4[nH]ncc4c3C3CC3)n(C)n2)cc1` (stereo not drawn) [Example 312]: the pIC50 is > 6.52.

For `CCNC(=O)c1ccc(-c2nc(Nc3ccc4[nH]ncc4c3CC)n(C)n2)cc1OC` [Example 313], the pIC50 is > 6.52.

As to `CCc1c(Nc2nc(-c3ccc(C(=O)NC(C)C)c(OC)c3)nn2C)ccc2[nH]ncc12` [Example 314], the pIC50 is > 6.52.

For the compound `CCc1c(Nc2nc(-c3ccc(C(=O)NC4CN(C)C4)c(OC)c3)nn2C)ccc2[nH]ncc12` [Example 315], the pIC50 is 5.52 to 6.52.

Take `CCc1c(Nc2nc(-c3ccc(C(=O)NCC(F)(F)F)c(OC)c3)nn2C)ccc2[nH]ncc12` [Example 316]: the pIC50 is > 6.52.

Take `CCc1c(Nc2nc(-c3ccc(C(=O)NCC(F)F)cc3)nn2C)ccc2[nH]ncc12` [Example 317]: the pIC50 was > 6.52.

Take `CCc1c(Nc2nc(-c3ccc(C(=O)NC(C)C)cc3)nn2C)ccc2[nH]ncc12` [Example 318]: the pIC50 was > 6.52.

For `CCc1c(Nc2nc(-c3ccc(C(=O)NC4CCC(F)(F)C4)cc3)nn2C)ccc2[nH]ncc12` (stereo not drawn) [Example 319], the pIC50 is > 6.52.

Take `CCc1c(Nc2nc(-c3ccc(C(=O)NCC(C)C)cc3)nn2C)ccc2[nH]ncc12` [Example 320]: the pIC50 was > 6.52.

For `CCc1c(Nc2nc(-c3ccc(C(=O)NCC(C)(C)C)cc3)nn2C)ccc2[nH]ncc12` [Example 321], the pIC50 was > 6.52.

For `CCc1c(Nc2nc(-c3ccc(C(=O)NC(C)C(F)(F)F)cc3)nn2C)ccc2[nH]ncc12` (stereo not drawn) [Example 322], the pIC50 was > 6.52.

Take `CCNC(=O)c1ccc(-c2nc(Nc3ccc4[nH]ncc4c3CC)n(C)n2)cc1` [Example 323]: the pIC50 was > 6.52.

For the compound `CCNC(=O)c1ccc(-c2nc(Nc3ccc4[nH]ncc4c3)n(C)n2)cc1` [Example 324], the pIC50 is > 6.52.

`CCNC(=O)c1ccc(-c2nc(Nc3ccc4[nH]ncc4c3)n(C)n2)cc1Cl` [Example 325]: the pIC50 was 5.52 to 6.52.

For `CCNC(=O)c1ccc(-c2nc(Nc3ccc4[nH]ncc4c3)n(C)n2)cc1F` [Example 326], the pIC50 is > 6.52.

With `CCNC(=O)c1ccc(-c2nc(Nc3ccc4[nH]ncc4c3)n(C)n2)c(Cl)c1` [Example 327], the pIC50 was > 6.52.

Take `COc1cc(-c2nc(Nc3ccc4[nH]ncc4c3C)n(C)n2)ccc1C(=O)NC1CN(C)C1` [Example 328]: the pIC50 was 5.00 to 5.52.

Take `COc1cc(-c2nc(Nc3ccc4[nH]ncc4c3C)n(C)n2)ccc1C(=O)NCCN(C)C` [Example 329]: the pIC50 is 5.00 to 5.52.

In the case of `COc1cc(-c2nc(Nc3cnc4[nH]ncc4c3)n(C)n2)ccc1C(=O)NCC(F)(F)F` [Example 330], the pIC50 is > 6.52.

As to `COc1cc(-c2nc(Nc3cnc4[nH]ncc4c3)n(C)n2)ccc1C(=O)NC(C)C` [Example 331], the pIC50 was 5.52 to 6.52.

On to `COc1cc(-c2nc(Nc3cnc4[nH]ncc4c3)n(C)n2)ccc1C(=O)NC1CC1` [Example 332], for which the pIC50 is 5.00 to 5.52.

As to `COc1cc(-c2nc(Nc3cc4cn[nH]c4cc3C)n(C)n2)ccc1C(=O)NCC(F)(F)F` [Example 335], the pIC50 was < 5.00.

With `COc1cc(-c2nc(Nc3ccc4[nH]ncc4c3F)n(C)n2)ccc1C(=O)NC(C)(C)C` [Example 336], the pIC50 is > 6.52.

As for `COCCn1nc(-c2ccc(C(=O)NCC(F)(F)F)c(C)c2)nc1Nc1ccc2[nH]ncc2c1C1CC1` [Example 337], the pIC50 was > 6.52.
